Experimental data from ChEMBL document CHEMBL3885881, “DrugMatrix”.

Key:
Rattus norvegicus [1] = species on record: Rattus norvegicus; experiment: DrugMatrix - Regimen: Daily Repeat; type: toxicity, organism-based, Sprague-Dawley; parameters: regimen Daily Repeat, gender Male, age 6-8 weeks; conditions: in vivo, po, 0 mg/kg, route oral GAVAGE, dose level Control, vehicle .5 % CMC; for ABSOLUTE BASOPHIL / ABSOLUTE EOSINOPHIL / ABSOLUTE LYMPHOCYTE / ABSOLUTE MONOCYTE / ABSOLUTE SEGMENTED NEUTROPHIL / BASOPHIL / EOSINOPHIL / ERYTHROCYTE COUNT / HEMATOCRIT / HEMOGLOBIN / LEUKOCYTE COUNT / LYMPHOCYTE / MEAN CORPUSCULAR HEMOGLOBIN / MEAN CORPUSCULAR HEMOGLOBIN CONCENTRATION / MEAN CORPUSCULAR VOLUME / MONOCYTE / NEUTROPHIL / NUCLEATED RED BLOOD CELLS / PLATELET COUNT: tissue Blood; for ALANINE AMINOTRANSFERASE / ALBUMIN / ALKALINE PHOSPHATASE / ASPARTATE AMINOTRANSFERASE / BLOOD UREA NITROGEN / CARBON DIOXIDE / CHLORIDE / CHOLESTEROL / CREATININE / GLUCOSE / LACTATE DEHYDROGENASE / LIPASE / PHOSPHORUS / POTASSIUM / SODIUM / TOTAL BILIRUBIN / TOTAL PROTEIN / URIC ACID: tissue Plasma
Rattus norvegicus [2] = species on record: Rattus norvegicus; type: toxicity, organism-based, Sprague-Dawley; conditions: in vivo, po, 0 mg/kg, 24 h, vehicle control, route oral GAVAGE, dose level Control, time 1 day, vehicle .5 % CMC
Description: DrugMatrix - Regimen: Single

## ClC(Br)Br [DIBROMOCHLOROMETHANE]
Rattus norvegicus [1]; 72 h, time 3 day
  ABSOLUTE BASOPHIL: 0 CELLS/uL
  ABSOLUTE EOSINOPHIL: 279.83 CELLS/uL
  ABSOLUTE LYMPHOCYTE: 13152.5 CELLS/uL
  ABSOLUTE MONOCYTE: 1013.83 CELLS/uL
  ABSOLUTE SEGMENTED NEUTROPHIL: 2420.5 CELLS/uL
  BASOPHIL: 0%
  EOSINOPHIL: 1.67%
  ERYTHROCYTE COUNT: 5.26 x10E6/uL
  HEMATOCRIT: 32.22%
  HEMOGLOBIN: 12.02 G/DL
  LEUKOCYTE COUNT: 16.87 x10E3/uL
  LYMPHOCYTE: 77.83%
  MEAN CORPUSCULAR HEMOGLOBIN: 22.93 pg
  MEAN CORPUSCULAR HEMOGLOBIN CONCENTRATION: 37.32 G/DL
  MEAN CORPUSCULAR VOLUME: 61.4 fL
  MONOCYTE: 6%
  NEUTROPHIL: 14.5%
  NUCLEATED RED BLOOD CELLS: 0 /100WBC
  PLATELET COUNT: 1122.17 x10E3/uL
  ALANINE AMINOTRANSFERASE: 55.67 u/L
  ALBUMIN: 4.35 G/DL
  ALKALINE PHOSPHATASE: 362.67 u/L
  ASPARTATE AMINOTRANSFERASE: 96 u/L
  BLOOD UREA NITROGEN: 18 mg/dL
  CARBON DIOXIDE: 27.5 mmol/L
  CHLORIDE: 100.17 MEQ/L
  CHOLESTEROL: 74.5 mg/dL
  CREATININE: 0.17 mg/dL
  GLUCOSE: 141.67 mg/dL
  LACTATE DEHYDROGENASE: 682.5 u/L
  LIPASE: 10 u/L
  PHOSPHORUS: 11.5 mg/dL
  POTASSIUM: 6.41 MEQ/L
  SODIUM: 141.2 MEQ/L
  TOTAL BILIRUBIN: 0.18 mg/dL
  TOTAL PROTEIN: 5.88 G/DL
  URIC ACID: 1.4 mg/dL
Rattus norvegicus [1]; 120 h, time 5 day
  ABSOLUTE BASOPHIL: 0 CELLS/uL
  ABSOLUTE EOSINOPHIL: 18.5 CELLS/uL
  ABSOLUTE LYMPHOCYTE: 8146.83 CELLS/uL
  ABSOLUTE MONOCYTE: 204.83 CELLS/uL
  ABSOLUTE SEGMENTED NEUTROPHIL: 1329.83 CELLS/uL
  BASOPHIL: 0%
  EOSINOPHIL: 0.17%
  ERYTHROCYTE COUNT: 5.37 x10E6/uL
  HEMATOCRIT: 33.17%
  HEMOGLOBIN: 12.07 G/DL
  LEUKOCYTE COUNT: 9.7 x10E3/uL
  LYMPHOCYTE: 85.33%
  MEAN CORPUSCULAR HEMOGLOBIN: 22.52 pg
  MEAN CORPUSCULAR HEMOGLOBIN CONCENTRATION: 36.42 G/DL
  MEAN CORPUSCULAR VOLUME: 61.78 fL
  MONOCYTE: 1.83%
  NEUTROPHIL: 12.67%
  NUCLEATED RED BLOOD CELLS: 0 /100WBC
  PLATELET COUNT: 907.5 x10E3/uL
  ALANINE AMINOTRANSFERASE: 58.5 u/L
  ALBUMIN: 4.4 G/DL
  ALKALINE PHOSPHATASE: 377.67 u/L
  ASPARTATE AMINOTRANSFERASE: 140.33 u/L
  BLOOD UREA NITROGEN: 15.33 mg/dL
  CARBON DIOXIDE: 32.17 mmol/L
  CHLORIDE: 100 MEQ/L
  CHOLESTEROL: 71.83 mg/dL
  CREATININE: 0.18 mg/dL
  GLUCOSE: 185 mg/dL
  LACTATE DEHYDROGENASE: 241.5 u/L
  LIPASE: 9.5 u/L
  PHOSPHORUS: 13.02 mg/dL
  POTASSIUM: 6.45 MEQ/L
  SODIUM: 143.45 MEQ/L
  TOTAL BILIRUBIN: 0.22 mg/dL
  TOTAL PROTEIN: 6.1 G/DL
  URIC ACID: 1 mg/dL
Rattus norvegicus [1]; […], time 14 day
  ABSOLUTE BASOPHIL: 0 CELLS/uL
  ABSOLUTE EOSINOPHIL: 117.17 CELLS/uL
  ABSOLUTE LYMPHOCYTE: 13562 CELLS/uL
  ABSOLUTE MONOCYTE: 534.83 CELLS/uL
  ABSOLUTE SEGMENTED NEUTROPHIL: 2486 CELLS/uL
  BASOPHIL: 0%
  EOSINOPHIL: 0.83%
  ERYTHROCYTE COUNT: 6.14 x10E6/uL
  HEMATOCRIT: 36.87%
  HEMOGLOBIN: 13.87 G/DL
  LEUKOCYTE COUNT: 16.7 x10E3/uL
  LYMPHOCYTE: 81%
  MEAN CORPUSCULAR HEMOGLOBIN: 22.63 pg
  MEAN CORPUSCULAR HEMOGLOBIN CONCENTRATION: 37.62 G/DL
  MEAN CORPUSCULAR VOLUME: 60.15 fL
  MONOCYTE: 3.17%
  NEUTROPHIL: 15%
  NUCLEATED RED BLOOD CELLS: 0 /100WBC
  PLATELET COUNT: 974.83 x10E3/uL
  ALANINE AMINOTRANSFERASE: 52.33 u/L
  ALBUMIN: 4.48 G/DL
  ALKALINE PHOSPHATASE: 346.17 u/L
  ASPARTATE AMINOTRANSFERASE: 81 u/L
  BLOOD UREA NITROGEN: 15.67 mg/dL
  CARBON DIOXIDE: 34.33 mmol/L
  CHLORIDE: 100.17 MEQ/L
  CHOLESTEROL: 70.83 mg/dL
  CREATININE: 0.22 mg/dL
  GLUCOSE: 141.17 mg/dL
  LACTATE DEHYDROGENASE: 121.33 u/L
  LIPASE: 8.33 u/L
  PHOSPHORUS: 9.97 mg/dL
  POTASSIUM: 6.4 MEQ/L
  SODIUM: 143.72 MEQ/L
  TOTAL BILIRUBIN: 0.22 mg/dL
  TOTAL PROTEIN: 6.45 G/DL
  URIC ACID: 1.25 mg/dL
Rattus norvegicus [2]; tissue Blood
  ABSOLUTE EOSINOPHIL: 150 CELLS/uL
  ABSOLUTE LYMPHOCYTE: 13279.83 CELLS/uL
  ABSOLUTE MONOCYTE: 654.5 CELLS/uL
  ABSOLUTE SEGMENTED NEUTROPHIL: 1565.67 CELLS/uL
  BASOPHIL: 0%
  EOSINOPHIL: 1%
  ERYTHROCYTE COUNT: 5.36 x10E6/uL
  HEMATOCRIT: 33.37%
  HEMOGLOBIN: 12.52 G/DL
  LEUKOCYTE COUNT: 15.65 x10E3/uL
  LYMPHOCYTE: 84.83%
  MEAN CORPUSCULAR HEMOGLOBIN: 23.4 pg
  MEAN CORPUSCULAR HEMOGLOBIN CONCENTRATION: 37.52 G/DL
  MEAN CORPUSCULAR VOLUME: 62.32 fL
  MONOCYTE: 4.17%
  NEUTROPHIL: 10%
  NUCLEATED RED BLOOD CELLS: 0 /100WBC
  PLATELET COUNT: 1020 x10E3/uL
Rattus norvegicus [2]; tissue Plasma
  ALANINE AMINOTRANSFERASE: 49 u/L
  ALBUMIN: 4.47 G/DL
  ALKALINE PHOSPHATASE: 361.17 u/L
  ASPARTATE AMINOTRANSFERASE: 78.67 u/L
  BLOOD UREA NITROGEN: 13.17 mg/dL
  CARBON DIOXIDE: 29.67 mmol/L
  CHLORIDE: 100.83 MEQ/L
  CHOLESTEROL: 82.17 mg/dL
  CREATININE: 0.15 mg/dL
  GLUCOSE: 150.83 mg/dL
  LACTATE DEHYDROGENASE: 239.17 u/L
  LIPASE: 7.83 u/L
  PHOSPHORUS: 13.82 mg/dL
  POTASSIUM: 6.62 MEQ/L
  SODIUM: 144.25 MEQ/L
  TOTAL BILIRUBIN: 0.15 mg/dL
  TOTAL PROTEIN: 6.2 G/DL
  URIC ACID: 1.57 mg/dL
